B1: full length recombinant FKBP-L: recombinant full length his-tagged FKBP-L protein (SEQ ID NO: 1) expressed in BL21 (DE3) (protein, listed as Homo sapiens)
chain: MRGSHHHHHHGMASMTGGQQMGRDLYDDDDKDRWGSMETPPVNTIGEKDTSQPQQEWEKNLRENLDSVIQIRQQPRDPPTETLELEVSPDPASQILEHTQGAEKLVAELEGDSHKSHGSTSQMPEALQASDLWYCPDGSFVKKIVIRGHGLDKPKLGSCCRVLALGFPFGSGPPEGWTELTMGVGPWREETWGELIEKCLESMCQGEEAELQLPGHTGPPVGLTLASFTQGRDSWELETSEKEALAREERARGTELFRAGNPEGAARCYGRALRLLLTLPPPGPPERTVLHANLAACQLLLGQPQLAAQSCDRVLEREPGHLKALYRRGVAQAALGNLEKATADLKKVLAIDPKNRAAQEELGKVVIQGKNQDAGLAQGLRKMFG
modifications: His tag

Columns and labels:
[1] = tested on: HMEC-1 (microvascular endothelial cells; CD44+ve); assay: cell invasion in a modified Boyden chamber system, HMEC-1; type: cell-based, Human; details: 48 h
Procedure: (§1) Twelve well plate polycarbonate inserts were divided into two groups with half remaining uncoated and half coated with 100 μg/cm^2 of Matrigel. The coated inserts were allowed to dry overnight at room temperature in a sterile tissue culture hood. The required cell line; HMEC-1, PC3 or MDA231 was trypsinised, re-suspended in fresh medium and the cell number calculated. 5×10^5 cells, in a total volume of 500 μl, were added to the insert (top chamber) and 1.5 ml of complete medium added to the bottom chamber of the plate as a stimulus for invasion. FKBP-L 24mer was added to both the upper and lower chamber of the plate at the required concentration in the experimental wells. The plate was incubated for 24 h (PC3 or MDA231) or 48 h (HMEC-1).
(§2) The inserts were carefully removed from their 12 well plate and inserts without Matrigel coating were placed directly into Carnoys fixative. […]
(§3) The polycarbonate inserts were cut from the holders and placed on to mounting medium on a microscope slide. […] The slides were stored at 4° C. until analysed.
(§4) Ten images from each insert were captured and the number of fluorescent cells per image was analysed by Lucia Imaging software. The ratio of cells visible on non-coated inserts compared to cells visible on Matrigel coated inserts was expressed as % invasion. […]

[2] = tested on: PC3 (prostate tumor cell line; CD44 +ve); assay: tumor cell migration, wound closure assay, PC3; type: cell-based; details: for effect on tumor cell migration: PC3
Procedure: In these experiments, the effect of recombinant FKBP-L on tumor cell migration was assessed. The in vitro migration assay used in these studies is a modified version of the method described by Ashton et al (1999) see supra. PC3, MDA231, and HT29 tumor cells were plated into individual chambers on a glass slide and grown to 90% confluence overnight. The medium was removed and the monolayers wounded. The monolayer was re-supplemented with fresh medium and the required volume of His-tagged recombinant FKBP-L protein (SEQ ID NO: 1) was added to give the final concentrations shown. The monolayers were incubated for 24 hours and then fixed in 4% PBS buffered paraformaldehyde.
The extent of “wound” closure was blindly assessed microscopically by an independent investigator and quantified using a calibrated eyepiece graticule (1 mm/100 μm graduation) at 20× magnification (Olympus BX 50). The extent of closure in the FKBP-L treated slides was compared to time matched sham-treated controls and the percent inhibition of wound closure compared to time matched controls calculated.
The in vitro migration assay used in these studies is a modified version of the method described by Ashton et al. (1999) see supra. PC3 (prostate tumor cell line; CD44 positive; CD44 +ve), MDA231 (breast tumor cell line; CD44 +ve), HT29 (Colorectal tumor cell line; CD44 +ve), MCF-7 (breast tumor cell line; CD44 negative; CD44 −ve) and DU145 (prostate tumor cell line; CD44 −ve) were plated into individual chambers on a glass slide and grown to 90% confluence overnight. The medium was removed and the monolayers wounded. […] The monolayers were incubated for 24 h and then fixed in 4% PBS buffered paraformaldehyde.
The extent of “wound” closure was blindly assessed microscopically by an independent investigator and quantified using a calibrated eyepiece graticule (1 mm/100 μm graduation) at 20× magnification (Olympus BX 50). The extent of closure in the FKBP-L treated slides was compared to time matched sham treated controls and the % inhibition of wound closure compared to time matched controls calculated.
PC3 cells were transfected for 72 h with either sicontrol non-targeting siRNA (SCR siRNA) (Dharmacon, Cat #D-001210-01-05) or CD44 targeted siRNA (CD44siRNA) (Dharmacon, Cat #009999). Briefly, 1.2×10^6 PC3 cells were seeded into two P90 dishes and incubated at 37° C. for 24 h. To transfect, 150 μl of the either sicontrol non-targeting siRNA or CD44 targeting siRNA (2 μM) was added to 450 μl of serum free medium (Tube 1). […] The monolayer was fixed after a further 24 h and the extent of wound closure was blindly assessed using a calibrated graticule. Percent inhibition of wound closure in FKBP-L-treated monolayers compared to untreated monolayers was calculated. […]

PC3 (Prostate; CD44+ve) = assay: cell invasion in a modified Boyden chamber system, PC3; type: cell-based; details: 24 h
Procedure: as §1, §2, §3, §4

Molecule | effect on cell invasion through Matrigel [1] | effect on tumor cell migration ([2]; 10^−14-10^−7 M, 24 h) | effect on cell invasion through Matrigel (PC3 (Prostate; CD44+ve)) | effect on tumor cell migration ([2]; 24 hours) | effect on migration of CD44 siRNA treated cells ([2]; PC3 transfected with CD44 targeted siRNA, 1500 ng/ml, 24 h) | inhibition of migration (wound closure) compared to untreated monolayers ([2]; PC3 transfected with non-targeting SCR siRNA, 1500 ng/ml, 24 h) [%]
H-QIRQQPRDPPTETLELEVSPDPAS-OH [FKBP-L 24mer] | potent inhibitor | can inhibit | potent inhibitor | – | – | –
B1 | – | – | – | inhibits tumor cell migration in a dose-dependent manner | no effect | 21.7
